Like-named read-outs stand apart in the source and are kept apart here.
Experiments:
human CB2 receptor [1] = target: T1, human CB2 receptor (Homo sapiens (Human), UniProt P34972); assay: CB2 receptor cAMP assay (DiscoverX HitHunter cAMP XS+); assay type: cell-based; conditions: for Emax: CHO-K1, read-out: Max Stimulation %
Procedure, shortened: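 CHO-K1 cells expressing human CB2, HitHunter cAMP XS+ chemiluminescence. Agonist mode with EC80 forskolin, inverse agonist with EC20 forskolin, antagonist mode by compound preincubation 30 min then EC80 agonist plus EC80 forskolin; 30 or 60 min at 37 °C or RT, 1% vehicle. IC50 from variable-slope fit.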

human CB2 receptor [2] = target: T1, human CB2 receptor; assay: CB2 receptor binding assay ([3H]CP-55,940 displacement, HEK-293 membranes)
human recombinant CB1R = human recombinant CB1R (Homo sapiens (Human), UniProt P21554); assay: CB1 receptor binding assay ([3H]CP-55,940 displacement, HEK-293 membranes); conditions: membranes of HEK-293 cells with human recombinant CB1R, [3H]CP-55,940, read-out: CB1 IC50
Procedure, shortened: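 Membranes from HEK-293 cells expressing human recombinant CB1R or CB2R were incubated with [3H]CP-55,940 and compound for 120 min at 37 °C in duplicate. The CB2R incubation buffer was 50 mM Tris-HCl, 5 mM MgCl2, 1 mM CaCl2, 0.2% BSA, pH 7.4. Bound radioactivity was filtered and counted, and IC50 was converted to Ki by Cheng–Prusoff.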

[3] = membranes of HEK-293 cells with human recombinant CB2R, [3H]CP-55,940, read-out: CB2 IC50
[4] = membranes of HEK-293 cells with human recombinant CB2R, [3H]CP-55,940, class symbols, read-out: CB2 IC50

Sequence of human recombinant CB1R (P21554 whole entry): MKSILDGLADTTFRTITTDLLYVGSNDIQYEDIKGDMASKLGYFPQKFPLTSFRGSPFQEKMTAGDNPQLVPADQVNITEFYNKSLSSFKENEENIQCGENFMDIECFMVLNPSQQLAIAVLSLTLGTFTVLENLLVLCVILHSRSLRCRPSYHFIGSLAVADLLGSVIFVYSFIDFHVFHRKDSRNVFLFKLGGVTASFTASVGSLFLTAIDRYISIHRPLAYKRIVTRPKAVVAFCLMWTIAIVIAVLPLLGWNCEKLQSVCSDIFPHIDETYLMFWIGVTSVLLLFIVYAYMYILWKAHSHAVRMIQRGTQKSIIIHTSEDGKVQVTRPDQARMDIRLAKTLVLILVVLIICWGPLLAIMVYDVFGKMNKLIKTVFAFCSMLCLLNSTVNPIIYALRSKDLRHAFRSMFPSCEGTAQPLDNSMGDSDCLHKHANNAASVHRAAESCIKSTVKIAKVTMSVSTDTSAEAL
T1 sequence (P34972 whole entry): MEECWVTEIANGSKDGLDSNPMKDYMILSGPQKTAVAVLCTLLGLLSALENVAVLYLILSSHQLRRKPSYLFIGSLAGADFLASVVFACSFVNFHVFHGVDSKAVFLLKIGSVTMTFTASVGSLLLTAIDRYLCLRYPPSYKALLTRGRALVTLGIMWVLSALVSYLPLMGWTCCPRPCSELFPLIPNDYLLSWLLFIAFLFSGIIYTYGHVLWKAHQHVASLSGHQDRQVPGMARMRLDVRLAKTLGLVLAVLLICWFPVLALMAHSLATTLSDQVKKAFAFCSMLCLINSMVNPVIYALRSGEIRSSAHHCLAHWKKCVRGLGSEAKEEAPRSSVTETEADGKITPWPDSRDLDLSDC

SMILES | IC50 (human CB2 receptor [1]) [nM] | Emax (human CB2 receptor [1]) [%] | IC50 (human CB2 receptor [2]; [3]) [nM] | IC50 (human recombinant CB1R) [nM] | IC50 (human CB2 receptor [2]; [4]) [nM] | IC50 (human recombinant CB1R; class symbols) [nM] | IC50 (human CB2 receptor [1]; cAMP Hunter CHO-K-1 cells expressing human CB2 receptor, read-out: cAMP IC50) [nM] | IC50 (human CB2 receptor [2]) [nM]
COc1ccc(-c2cnc3c(c2)c(O)c(C(=O)NC2CCC(C)CC2)c(=O)n3CCN2CCOCC2)cc1 (centres unmarked) [Compound 20, 4-hydroxy-6-(4-methoxyphenyl)-N-(4-methylcyclohexyl)-1-(2-morpholinoethyl)-2-oxo-1,2-dihydro-1,8-naphthyridine-3-carboxamide] | 7 | 93 | 4.7 | > 10000 | – | – | – | –
CC1CCC(NC(=O)c2cc3cc(-c4ccc(C#N)cn4)cnc3n(CCN3CCOCC3)c2=O)CC1 (centres unmarked) [Compound 57, 6-(5-cyanopyridin-2-yl)-N-(4-methylcyclohexyl)-1-(2-morpholinoethyl)-2-oxo-1,2-dihydro-1,8-naphthyridine-3-carboxamide] | 8 | 63 | – | – | < 100 | > 1000 | – | –
O=C(NC1CCC(F)(F)CC1)c1c(O)c2cc(-c3ccc(F)cc3)cnc2n(CCN2CCOCC2)c1=O [Compound 7, N-(4,4-difluorocyclohexyl)-6-(4-fluorophenyl)-4-hydroxy-1-(2-morpholinoethyl)-2-oxo-1,2-dihydro-1,8-naphthyridine-3-carboxamide] | – | – | – | – | > 1000 | > 1000 | > 1000 | –
O=C(NC12CC(C1)C2)c1cc2cc(Br)cnc2n(Cc2ccc(F)cc2)c1=O [Compound 82, N-(bicyclo[1.1.1]pentan-1-yl)-6-bromo-1-(4-fluorobenzyl)-2-oxo-1,2-dihydro-1,8-naphthyridine-3-carboxamide] | 1 | 86 | – | – | < 100 | > 1000 | – | –
O=C(NC1CC2(CCC2)C1)c1c(O)c2cc(-c3ccc(Cl)cc3)cnc2n(CCN2CCOCC2)c1=O [Compound 11, 6-(4-chlorophenyl)-4-hydroxy-1-(2-morpholinoethyl)-2-oxo-N-(spiro[3.3]heptan-2-yl)-1,2-dihydro-1,8-naphthyridine-3-carboxamide] | 81 | 60 | – | – | – | > 1000 | – | 100 to 999
C[C@@H](NC(=O)c1cc2cc(C3CC3)cnc2n(Cc2ccc(F)cc2)c1=O)c1ccc(C#N)cc1 [Compound 95, (R)—N-(1-(4-cyanophenyl)ethyl)-6-cyclopropyl-1-(4-fluorobenzyl)-2-oxo-1,2-dihydro-1,8-naphthyridine-3-carboxamide] | 2 | 60 | 3.2 | 895 | – | – | – | –
